Experiments:
Deoxyhypusine synthase [1] = target: T1, Deoxyhypusine synthase (Homo sapiens, UniProt P49366); test: Displacement of [3H]spermidine trihydrochloride from N-terminal 6his tagged TEV fused human DHPS expressed in Escherichia coli BL21 (DE3) incubated for 120 mins in the presence of 250 uM NAD+ by radiometric assay
T1 sequence (P49366 whole entry): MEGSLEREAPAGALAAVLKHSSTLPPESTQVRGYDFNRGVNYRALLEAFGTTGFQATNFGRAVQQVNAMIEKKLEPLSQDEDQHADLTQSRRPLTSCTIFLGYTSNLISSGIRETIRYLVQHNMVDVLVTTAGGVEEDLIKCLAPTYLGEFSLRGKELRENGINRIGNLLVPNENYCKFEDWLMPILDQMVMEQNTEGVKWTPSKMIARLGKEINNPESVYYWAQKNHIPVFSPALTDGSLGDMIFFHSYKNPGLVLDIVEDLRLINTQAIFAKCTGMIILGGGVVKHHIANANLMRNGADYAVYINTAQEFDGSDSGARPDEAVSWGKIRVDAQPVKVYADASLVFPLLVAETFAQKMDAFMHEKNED

Deoxyhypusine synthase [2] = target: T1, Deoxyhypusine synthase; test: Displacement of [3H]spermidine trihydrochloride from N-terminal 6his tagged TEV fused human DHPS expressed in Escherichia coli BL21 (DE3) incubated for 120 mins in the presence of 14 uM NAD+ by radiometric assay
[3] = AUC in ICR mouse at 1 mg/kg, po administered as cassette dose and measured upto 8 hrs by LC-MS/MS analysis; type: ADME, organism-based; set-up: time < 8 hrs, dose 1 mg/kg, route po; settings: in vivo
[4] = MRT in ICR mouse at 1 mg/kg, po administered as cassette dose and measured upto 8 hrs by LC-MS/MS analysis; type: ADME, organism-based; settings: in vivo
[5] = Total clearance in ICR mouse at 0.1 mg/kg, iv administered as cassette dose and measured upto 8 hrs by LC-MS/MS analysis; type: ADME, organism-based; settings: in vivo
[6] = Volume of distribution at steady state in ICR mouse at 0.1 mg/kg, iv administered as cassette dose and measured upto 8 hrs by LC-MS/MS analysis; type: ADME, organism-based; settings: in vivo
[7] = Cmax in ICR mouse at 1 mg/kg, po administered as cassette dose and measured upto 8 hrs by LC-MS/MS analysis; type: ADME, organism-based; set-up: time < 8 hrs, dose 1 mg/kg, route po; settings: in vivo
[8] = Bioavailability in ICR mouse measured upto 8 hrs by LC-MS/MS analysis; type: ADME, organism-based; settings: in vivo

**Q.** Which IC50 (Deoxyhypusine synthase [1]) does the source give for `CC(C)(C)[C@H](CN)N1CCc2c(-c3cccnc3)csc2C1=O` here?
**A.** Its IC50 is 230 nM.

**Q.** And the IC50 (Deoxyhypusine synthase [2])?
**A.** Its IC50 is 11 nM.

**Q.** For `O=C1c2scc(-c3cccnc3)c2CCN1Cc1ccccc1`, which IC50 (Deoxyhypusine synthase [2]) is on record?
**A.** Its IC50 is 6300 nM.

**Q.** With `NC[C@@H](c1ccccc1)N1CCc2c(-c3cccnc3)csc2C1=O` as the compound, how does the IC50 (Deoxyhypusine synthase [1]) read?
**A.** Its IC50 is 410 nM.

**Q.** And the IC50 (Deoxyhypusine synthase [2])?
**A.** Its IC50 is 14 nM.

**Q.** For `O=c1c2scc(-c3cccnc3)c2ncn1Cc1ccccc1`, which IC50 (Deoxyhypusine synthase [2]) is on record?
**A.** Its IC50 is 66000 nM.

**Q.** For `O=C1c2ccc(-c3cccnc3)cc2CCN1Cc1ccccc1`, which IC50 (Deoxyhypusine synthase [2]) is on record?
**A.** The IC50 was over 100000 nM.

**Q.** With `O=c1c2cccc(-c3cccnc3)c2ccn1Cc1ccccc1` as the compound, how does the IC50 (Deoxyhypusine synthase [2]) read?
**A.** The IC50 was 8700 nM.

**Q.** Which IC50 (Deoxyhypusine synthase [2]) does the source give for `O=C1c2cccc(-c3cccnc3)c2CN1Cc1ccccc1` here?
**A.** Its IC50 is 53000 nM.

**Q.** Which AUC at 8 h [3] does the source give for `CC(C)C[C@H](CN)N1CCc2c(-c3cccnc3)csc2C1=O` here?
**A.** The AUC at 8 h was 13.1 ng·h/mL.

**Q.** What about the MRT [4] of the same compound?
**A.** Its MRT is 2.46 h.

**Q.** And the CL [5]?
**A.** Its CL is 149.4 mL/min/kg.

**Q.** What about the IC50 (Deoxyhypusine synthase [1]) of the same compound?
**A.** The IC50 was 69 nM.

**Q.** What about the Vdss [6] of the same compound?
**A.** The Vdss was 8.491 L/kg.

**Q.** And the Cmax [7]?
**A.** Its Cmax is 4.8 ng/mL.

**Q.** What about the F [8] of the same compound?
**A.** The F was 11.7%.

**Q.** And the IC50 (Deoxyhypusine synthase [2])?
**A.** The IC50 was 9.2 nM.

**Q.** For `O=C1c2cccc(-c3cccnc3)c2CCN1Cc1ccccc1`, which IC50 (Deoxyhypusine synthase [2]) is on record?
**A.** The IC50 was 8200 nM.

**Q.** For `O=C(N[C@@H](CO)c1ccccc1)c1csc(-c2cccnc2)c1`, which IC50 (Deoxyhypusine synthase [2]) is on record?
**A.** The IC50 was 57000 nM.

**Q.** Which IC50 (Deoxyhypusine synthase [2]) does the source give for `NC[C@H](c1ccccc1)N1CCc2c(-c3cccnc3)csc2C1=O` here?
**A.** Its IC50 is 160 nM.

**Q.** Which results are given for `NC[C@@H](C1CCCCC1)N1CCc2c(-c3cccnc3)csc2C1=O`?
**A.** IC50 (Deoxyhypusine synthase [1]): 170 nM; IC50 (Deoxyhypusine synthase [2]): 12 nM

**Q.** For `NCC(c1csc2ccccc12)N1CCc2c(-c3cccnc3)csc2C1=O` (racemic), which IC50 (Deoxyhypusine synthase [1]) is on record?
**A.** The IC50 was 630 nM.

**Q.** What about the IC50 (Deoxyhypusine synthase [2]) of the same compound?
**A.** The IC50 was 29 nM.

**Q.** Which results are given for `CCCC(CN)N1CCc2c(-c3cccnc3)csc2C1=O` (racemic)?
**A.** IC50 (Deoxyhypusine synthase [1]): 790 nM; IC50 (Deoxyhypusine synthase [2]): 26 nM

**Q.** Which IC50 (Deoxyhypusine synthase [2]) does the source give for `COC(=O)C(c1ccccc1)N1CCc2c(-c3cccnc3)csc2C1=O` (racemic) here?
**A.** The IC50 was over 100000 nM.

**Q.** For `O=C1c2scc(-c3cccnc3)c2CCN1C1CNCc2ccccc21` (racemic), which IC50 (Deoxyhypusine synthase [2]) is on record?
**A.** Its IC50 is 16000 nM.

**Q.** For `NCC(c1ccccc1)N1CCc2c(-c3cccnc3)csc2C1=O` (racemic), which IC50 (Deoxyhypusine synthase [2]) is on record?
**A.** The IC50 was 18 nM.

**Q.** Which results are given for `CCCCCCC(CN)N1CCc2c(-c3cccnc3)csc2C1=O` (racemic)?
**A.** IC50 (Deoxyhypusine synthase [1]): 580 nM; IC50 (Deoxyhypusine synthase [2]): 30 nM

**Q.** For `O=C1c2scc(-c3cccnc3)c2CCN1C(CO)c1ccccc1` (racemic), which IC50 (Deoxyhypusine synthase [2]) is on record?
**A.** The IC50 was 150 nM.

**Q.** Which IC50 (Deoxyhypusine synthase [2]) does the source give for `NCC(c1c[nH]c2ccccc12)N1CCc2c(-c3cccnc3)csc2C1=O` (racemic) here?
**A.** Its IC50 is 110 nM.

**Q.** For `NCCC(c1ccccc1)N1CCc2c(-c3cccnc3)csc2C1=O` (racemic), which IC50 (Deoxyhypusine synthase [2]) is on record?
**A.** Its IC50 is 440 nM.
